Test results from ChEMBL document CHEMBL4017441, “Mitigating the inhibition of human bile salt export pump by drugs: opportunities provided by physicochemical property modulation, in silico modeling, and structural modification” (Drug Metab Dispos, 2012).
Where a name gives a salt, the structure may show the parent alone.

Molecular target: Bile salt export pump (Homo sapiens, UniProt O95342)
Format: ADME

CC1=NS(=O)(=O)c2cc(Cl)ccc2N1 [DIAZOXIDE]
IC50: > 1000 µM

c1ccc2c(c1)sc1ccccc12 [DIBENZOTHIOPHENE]
IC50: 388 µM

CCCCOc1cc(C(=O)NCCN(CC)CC)c2ccccc2n1 [DIBUCAINE]
IC50: 41.7 µM

NS(=O)(=O)c1cc(Cl)c(Cl)c(S(N)(=O)=O)c1 [DICHLORPHENAMIDE]
IC50: > 919 µM

O=C(O)Cc1ccccc1Nc1c(Cl)cccc1Cl [DICLOFENAC]
IC50: 65 µM

Cc1onc(-c2c(Cl)cccc2Cl)c1C(=O)N[C@@H]1C(=O)N2[C@@H]1SC(C)(C)[C@@H]2C(=O)O [DICLOXACILLIN]
IC50: < 10 µM

O=c1oc2ccccc2c(O)c1Cc1c(O)c2ccccc2oc1=O [DICUMAROL]
IC50: 39.9 µM

O=C1c2ccccc2CN2C(=O)c3ccccc3CN12 [DIFTALONE]
IC50: > 1000 µM

C[C@H]1O[C@@H](O[C@H]2[C@@H](O)C[C@H](O[C@H]3[C@@H](O)C[C@H](O[C@H]4CC[C@@]5(C)[C@H](CC[C@@H]6[C@@H]5CC[C@]5(C)[C@@H](C7=CC(=O)OC7)CC[C@]65O)C4)O[C@@H]3C)O[C@@H]2C)C[C@H](O)[C@@H]1O [DIGITOXIN]
IC50: < 10 µM

CC1(C)OC(=O)NC1=O [DIMETHADIONE]
IC50: > 1000 µM

CCCCc1cc2ccccc2c(OCCN(C)C)n1 [DIMETHISOQUIN]
IC50: 68.7 µM

CCCCC[C@H](O)/C=C/[C@H]1[C@H](O)CC(=O)[C@@H]1C/C=C\CCCC(=O)O [DINOPROSTONE]
IC50: > 1000 µM

CCN(CC)C(=S)S [DITIOCARB]
IC50: 69.3 µM

CC(CCc1ccc(O)cc1)NCCc1ccc(O)c(O)c1 (centres undefined) [DOBUTAMINE]
IC50: > 1000 µM

CCCCCCCCCCCCCCCCCCCCCCO [DOCOSANOL]
IC50: > 1000 µM

CN(CCOc1ccc(NS(C)(=O)=O)cc1)CCc1ccc(NS(C)(=O)=O)cc1 [DOFETILIDE]
IC50: 708 µM

COc1cc2c(cc1OC)C(=O)C(CC1CCN(Cc3ccccc3)CC1)C2 (centres undefined) [DONEPEZIL]
IC50: 146 µM

Oc1ccc(CCNCCCCCCNCCc2ccccc2)cc1O [DOPEXAMINE]
IC50: > 1000 µM

CN(C)CCOC(C)(c1ccccc1)c1ccccn1 (centres undefined) [DOXYLAMINE]
IC50: > 1000 µM

O=C(CCCN1CC=C(n2c(=O)[nH]c3ccccc32)CC1)c1ccc(F)cc1 [DROPERIDOL]
IC50: < 10 µM

CCCCOc1ccc(C(=O)CCN2CCCCC2)cc1 [DYCLONINE]
IC50: 275 µM

Cn1c(=O)c2c(ncn2CC(O)CO)n(C)c1=O (centres undefined) [DYPHYLLINE]
IC50: > 1000 µM

O=c1c2ccccc2[se]n1-c1ccccc1 [EBSELEN]
IC50: < 10 µM

Clc1ccc(COC(Cn2ccnc2)c2ccc(Cl)cc2Cl)cc1 (centres undefined) [ECONAZOLE]
IC50: < 10 µM

CCCn1c(=O)[nH]c(=O)c2[nH]cnc21 [ENPROFYLLINE]
IC50: > 1000 µM

CCN1CCN(c2cc3c(cc2F)c(=O)c(C(=O)O)cn3C2CC2)CC1 [ENROFLOXACIN]
IC50: > 1000 µM

N#Cc1ccccc1OCC(O)CNCCNC(=O)Cc1ccc(O)cc1 (centres undefined) [EPANOLOL]
IC50: 244 µM

C#Cc1cccc(Nc2ncnc3cc(OCCOC)c(OCCOC)cc23)c1 [ERLOTINIB]
IC50: < 10 µM

C[C@]12CC[C@@H]3c4ccc(O)cc4CC[C@H]3[C@@H]1C[C@@H](O)[C@@H]2O [ESTRIOL]
IC50: > 1000 µM

C[C@]12CC[C@@H]3c4ccc(O)cc4CC[C@H]3[C@@H]1CCC2=O [ESTRONE]
IC50: > 1000 µM

CCOc1ccc2nc3cc(N)ccc3c(N)c2c1 [ETHACRIDINE]
IC50: 43.5 µM

C#C[C@]1(O)CC[C@H]2[C@@H]3CCc4cc(O)ccc4[C@H]3CC[C@@]21C [ETHINYL ESTRADIOL]
IC50: < 10 µM

CCc1cc(C(N)=S)ccn1 [ETHIONAMIDE]
IC50: > 1000 µM

CCN(CC)C(C)CN1c2ccccc2Sc2ccccc21 (centres undefined) [ETHOPROPAZINE]
IC50: 139 µM

CCC1(C)CC(=O)NC1=O (centres undefined) [ETHOSUXIMIDE]
IC50: > 1000 µM

CCN1C(=O)NC(c2ccccc2)C1=O (centres undefined) [ETHOTOIN]
IC50: > 792 µM

CC(O)(P(=O)(O)O)P(=O)(O)O [ETIDRONIC ACID]
IC50: > 1000 µM

CCOC(=O)c1cncn1[C@H](C)c1ccccc1 [ETOMIDATE]
IC50: 61.6 µM

O=C(O)Cc1ccccc1Oc1ccc(Cl)cc1Cl [FENCLOFENAC]
IC50: 236 µM

CN1CC(=O)N=C1NC(=O)Nc1cccc(Cl)c1 [FENOBAM ANHYDROUS]
IC50: > 1000 µM

Oc1ccc(C2CNCCc3c2cc(O)c(O)c3Cl)cc1 (centres undefined) [FENOLDOPAM]
IC50: > 1000 µM

O=C(NCC1CCCCN1)c1cc(OCC(F)(F)F)ccc1OCC(F)(F)F (centres undefined) [FLECAINIDE]
IC50: 218 µM

Cc1onc(-c2c(F)cccc2Cl)c1C(=O)N[C@@H]1C(=O)N2[C@@H]1SC(C)(C)[C@@H]2C(=O)O [FLOXACILLIN]
IC50: < 10 µM

CCOC(=O)c1ncn2c1CN(C)C(=O)c1cc(F)ccc1-2 [FLUMAZENIL]
IC50: > 733 µM

C[C@@H]1C[C@H]2[C@@H]3C[C@H](F)C4=CC(=O)C=C[C@]4(C)[C@@]3(F)[C@@H](O)C[C@]2(C)[C@@]1(O)C(=O)CO [FLUMETHASONE]
IC50: 68.5 µM

Fc1ccc(C(c2ccc(F)cc2)N2CCN(C/C=C/c3ccccc3)CC2)cc1 [FLUNARIZINE]
IC50: < 10 µM

CC(=O)[C@@]1(O)CC[C@H]2[C@@H]3C[C@H](C)C4=CC(=O)C=C[C@]4(C)[C@@]3(F)[C@@H](O)C[C@@]21C [FLUOROMETHOLONE]
IC50: 101 µM

O=c1[nH]cc(F)c(=O)[nH]1 [FLUOROURACIL]
IC50: > 1000 µM

OCCN1CCN(CCCN2c3ccccc3Sc3ccc(C(F)(F)F)cc32)CC1 [FLUPHENAZINE]
IC50: 25.8 µM

CC1(C)O[C@@H]2C[C@H]3[C@@H]4C[C@H](F)C5=CC(=O)CC[C@]5(C)[C@H]4[C@@H](O)C[C@]3(C)[C@]2(C(=O)CO)O1 [FLURANDRENOLIDE]
IC50: 71.2 µM

CC(C(=O)O)c1ccc(-c2ccccc2)c(F)c1 (centres undefined) [FLURBIPROFEN]
IC50: 725 µM

CC(C)C(=O)Nc1ccc([N+](=O)[O-])c(C(F)(F)F)c1 [FLUTAMIDE]
IC50: 60.8 µM

CCCc1c(OCC(O)COc2ccc3c(=O)cc(C(=O)O)oc3c2CCC)ccc(C(C)=O)c1O (centres undefined) [FPL-55712]
IC50: < 10 µM

CC(=O)O[C@H]1C[C@@]2(C)[C@@H](C[C@@H](O)[C@H]3[C@@]4(C)CC[C@@H](O)[C@@H](C)[C@@H]4CC[C@@]32C)/C1=C(\CCC=C(C)C)C(=O)O [FUSIDATE SODIUM]
IC50: < 10 µM

NCC1(CC(=O)O)CCCCC1 [GABAPENTIN]
IC50: > 1000 µM

CO/N=C1\CN(c2nc3c(cc2F)c(=O)c(C(=O)O)cn3C2CC2)CC1CN (centres undefined) [GEMIFLOXACIN]
IC50: > 1000 µM

O=C(OCC(O)CO)c1ccccc1Nc1ccnc2cc(Cl)ccc12 (centres undefined) [GLAFENINE]
IC50: < 14.9 µM

Cc1ccc(S(=O)(=O)NC(=O)NN2CC3CCCC3C2)cc1 (centres undefined) [GLICLAZIDE]
IC50: 591 µM

CCC1=C(C)CN(C(=O)NCCc2ccc(S(=O)(=O)NC(=O)N[C@H]3CC[C@H](C)CC3)cc2)C1=O [GLIMEPIRIDE]
IC50: < 10 µM

COc1ccccc1O [GUAIACOL]
IC50: > 1000 µM

N=C(N)N/N=C/c1c(Cl)cccc1Cl [GUANABENZ]
IC50: 344 µM

N=C(N)NCCN1CCCCCCC1 [GUANETHIDINE]
IC50: > 1000 µM

CC1(C)O[C@@H]2C[C@H]3[C@@H]4CCC5=CC(=O)CC[C@]5(C)[C@@]4(F)[C@@H](O)C[C@]3(C)[C@]2(C(=O)CCl)O1 [HALCINONIDE]
IC50: < 10 µM

CC(=O)NCCCCCCNC(C)=O [HEXAMETHYLENEBISACETAMIDE]
IC50: > 1000 µM

Oc1ccc(C(O)CNCCCCCCNCC(O)c2ccc(O)c(O)c2)cc1O (centres undefined) [HEXOPRENALINE]
IC50: > 1000 µM

CC(CNC1CCCCC1)OC(=O)c1ccccc1 (centres undefined) [HEXYLCAINE HYDROCHLORIDE]
IC50: 506 µM

NCCc1c[nH]cn1 [HISTAMINE]
IC50: > 1000 µM

CCN(CC)CCNc1ccc(CO)c2sc3ccccc3c(=O)c12 [HYCANTHONE]
IC50: 29.8 µM

NNc1nncc2ccccc12 [HYDRALAZINE]
IC50: > 1000 µM

C[C@]12CCC(=O)C=C1CC[C@@H]1[C@@H]2[C@@H](O)C[C@@]2(C)[C@H]1CC[C@]2(O)C(=O)CO [HYDROCORTISONE]
IC50: 252 µM

NS(=O)(=O)c1cc2c(cc1C(F)(F)F)NCNS2(=O)=O [HYDROFLUMETHIAZIDE]
IC50: > 1000 µM

OCCOCCN1CCN(C(c2ccccc2)c2ccc(Cl)cc2)CC1 (centres undefined) [HYDROXYZINE]
IC50: 72.9 µM

CC(C)Cc1ccc(C(C)C(=O)O)cc1 (centres undefined) [IBUPROFEN]
IC50: > 789 µM

Cc1ccc(NC(=O)c2ccc(CN3CCN(C)CC3)cc2)cc1Nc1nccc(-c2cccnc2)n1 [IMATINIB]
IC50: < 10 µM

CCn1ccnc1CC1COc2ccccc2O1 (centres undefined) [IMILOXAN]
IC50: 61.7 µM

C[C@@H](O)[C@H]1C(=O)N2C(C(=O)O)=C(SCCN=CN)C[C@H]12 [IMIPENEM ANHYDROUS]
IC50: > 1000 µM

Nc1cc(-c2ccncc2)c[nH]c1=O [INAMRINONE]
IC50: 371 µM

c1ccc2c(CCC3CCNCC3)c[nH]c2c1 [INDALPINE]
IC50: > 1000 µM

CC1Cc2ccccc2N1NC(=O)c1ccc(Cl)c(S(N)(=O)=O)c1 (centres undefined) [INDAPAMIDE]
IC50: 145 µM

O=C(NC1CCN(CCc2c[nH]c3ccccc23)CC1)c1ccccc1 [INDORAMIN]
IC50: 109 µM

Oc1c(I)cc(I)c2cccnc12 [IODOQUINOL]
IC50: > 1000 µM

CC(C)NNC(=O)c1ccncc1 [IPRONIAZID]
IC50: > 953 µM

O=C1c2ccccc2S(=O)(=O)N1CCCCN1CCN(c2ncccn2)CC1 [IPSAPIRONE]
IC50: 31.2 µM

CCC(NC(C)C)C(O)c1ccc(O)c(O)c1 (centres undefined) [ISOETHARINE]
IC50: > 1000 µM

CC(C)NCC(O)c1ccc(O)c(O)c1 (centres undefined) [ISOPROTERENOL]
IC50: > 986 µM

CC(COc1ccccc1)NC(C)C(O)c1ccc(O)cc1 (centres undefined) [ISOXSUPRINE]
IC50: 573 µM

CN1CCC(=C2c3ccccc3CC(=O)c3sccc32)CC1 [KETOTIFEN]
IC50: > 429 µM

CC(CCc1ccccc1)NCC(O)c1ccc(O)c(C(N)=O)c1 (centres undefined) [LABETALOL]
IC50: 649 µM

OC[C@@H](O)[C@@H](O[C@@H]1O[C@H](CO)[C@H](O)[C@H](O)[C@H]1O)[C@H](O)[C@@H](O)CO [LACTITOL]
IC50: > 1000 µM

CS(=O)(=O)CCNCc1ccc(-c2ccc3ncnc(Nc4ccc(OCc5cccc(F)c5)c(Cl)c4)c3c2)o1 [LAPATINIB]
IC50: < 10 µM

Cc1ccc2c(c1)c1c(n2CCc2ccc(C)nc2)CCN(C)C1 [LATREPIRDINE]
IC50: 136 µM

C[C@H](CN(C(=O)c1ccc(C#N)cc1)c1ccccn1)N1CCN(c2cccc3c2OCCO3)CC1 [LECOZOTAN]
IC50: < 10 µM

Cc1oncc1C(=O)Nc1ccc(C(F)(F)F)cc1 [LEFLUNOMIDE]
IC50: 110 µM

N#Cc1ccc(C(c2ccc(C#N)cc2)n2cncn2)cc1 [LETROZOLE]
IC50: 225 µM
